Legend:
[1] = tested on: liquid taken from the rumen; experiment: Study 1: in vitro digestibility of dehydrated alfalfa in rumen liquid (Tilley and Terry method); parameters: species or system cows; conditions: for ADFd (digestibility of acid digestible fiber) / DMd (digestibility of the dry matter) / NDFd (digestibility of neutral digestible fiber): dehydrated alfalfa, 30 ppm additive in total (mixture 15 + 15 ppm), 39° C., 24 hours; for digestibility of the fibers of the dehydrated alfalfa (in words): versus no additive
Procedure: During this first study, the effects of a mixture according to the invention on the digestibility of the feed of the ruminant animals was analyzed, by conducting an “in vitro” study in accordance with the Tilley and Terry method (1963). For a more complete description of this method, please refer to the following publication: […]. and Terry, R. A. 1963. A two stage technique for the in vitro digestion of forage crops. J. Brit. Grassland Soc. 18-104-111. For incubation the following was used: • a) The basic feed made up of 100% dehydrated alfalfa, supplemented by an equal amount of Peugenol, or of cinnamaldehyde, or of a mixture of the two components; • b) MacDougall buffer; • c) Liquid taken from the empty rumen of four animals permanently equipped with a nozzle on the level of the rumen and nourished with the basic feed. […] The ruminated liquid originated in fistulated cows during the first 100 days of lactation. The state of the first container was preserved, without making any addition. […] In the third container, 30 ppm cinnamaldehyde was added. In the fourth container, 15 ppm of eugenol and 15 ppm of cinnamaldehyde was added. The containers were incubated at 39° C. during 24 hours. The DacronTM sachets were removed, washed and dried at 55° C. Various digestibility parameters were determined according to the Van Soest et al. method (1991). For a more complete description of this method, please refer to the following publication: Van Soest, P. J. Robertson. J. D., and Lewis, B. A. 1991. Methods for dietary fibre, neutral detergent fibre and non-starch polysaccharides in relation to animal nutrition. J. Dairy Se. 74: 3583-3597.

[2] = tested on: Holstein-Freisan milk cows; experiment: Study 2: food consumption and dairy production in milk cows, Latin Square 4x4; format: in vivo
Procedure: In the second study, the effect of a variation in the relative proportions of eugenol and cinnamaldehyde in a food additive on the production of meat and the dairy production was tested.
In this test, sixteen Holstein-Freisan milk cows, in their eighth week of lactation, were divided for Latin type Square 4×4 testing. Each period of treatment lasted two weeks.
The first group received a food without an additive.
The second group received a food containing 30 ppm cinnamaldehyde.
The third group received a food containing a mixture of 30 ppm cinnamaldehyde and 15 ppm of eugenol.
The fourth group received a food containing a mixture of 30 ppm eugenol and 16 ppm of cinnamaldehyde.
During each treatment period, the food consumption and the dairy production were measured.

rumen fluid = experiment: Study 5: in vitro feed digestibility, dose of the mixture versus monensin (Tilley and Terry method); parameters: species or system cows; conditions: after 24 hours; mixture 28% eugenol and 17% cinnamaldehyde at 3, 30, 300 mg per animal/per day; monensin as reference
Procedure: In the table above, the characteristics of each food are expressed as a percentage of dry matter, total protein, neutral digestible fiber (NDF), acid digestible fiber (ADF), for the oats, alfalfa, a complete feed (TMR). […] The effects of a mixture according to the invention on the feed digestibility according to the Tilley and Terry method were analyzed. […] Control bottles were also prepared, containing ethanol, to avoid the parasitic effects of fermentation due to ethanol. […] The results were analyzed by using mixed SAS procedures. The results were compared to the feed containing the monensin. The results from the feed containing monensin were considered a reference result. […] Thus, this fable reflects the digestibility of neutral digestible fiber (NDFd), digestibility of acid digestible fiber (ADFd), and dry matter digestibility (DMd), after 24 hours.

[3] = milk cows, eighth week of lactation, two-week treatment periods, ppm in food

SMILES: O=CC=Cc1ccccc1 [Cinnamaldehyde, cinnamaldehyde]
- ADFd (digestibility of acid digestible fiber) [1]: 8.53%
- DMd (digestibility of the dry matter) [1]: 39.06%
- NDFd (digestibility of neutral digestible fiber) [1]: 4.83%
- digestibility of the fibers of the dehydrated alfalfa (in words) [1]: does not improve
- Food Consumption [2, 3]: 2.571b kg MS/animal/d
- Milk Production [2, 3]: 37.23 l/animal/d
- food consumption (in words) ([2]; versus no additive): reduction
- milk production (in words) ([2]; versus no additive): reduction

SMILES: C=CCc1ccc(O)c(OC)c1 [Eugenol, eugenol]
- ADFd (digestibility of acid digestible fiber) [1]: 8.05%
- DMd (digestibility of the dry matter) [1]: 40.02%
- NDFd (digestibility of neutral digestible fiber) [1]: 5.63%
- digestibility of the fibers of the dehydrated alfalfa (in words) [1]: does not improve

SMILES: CC[C@@]1([C@@H]2O[C@@H]([C@H]3O[C@@](O)(CO)[C@H](C)C[C@@H]3C)C[C@@H]2C)CC[C@H]([C@]2(C)CC[C@]3(C[C@H](O)[C@@H](C)[C@@H]([C@@H](C)[C@@H](OC)[C@H](C)C(=O)O)O3)O2)O1 [MON, sodium-monensin]
- ADFd (digestibility of acid digestible fiber) (rumen fluid): 24.38
- DMd (dry matter digestibility) (rumen fluid): 43.43
- NDFd (digestibility of neutral digestible fiber) (rumen fluid): 22.24

— patent publication US20140056983A1, “FOOD ADDITIVE FOR RUMINANTS BASED ON EUGENOL AND CINNAMALDEHYDE” (priority 2005, published 2014)
